We go through 1 compound from PMC4775387 (Neurochemical research, 2015).

In this test the test system is D4 receptors, ICR mouse striatum. The test can be described thus: Antagonist effect on D-301-stimulated [35S]GTPγS binding in ICR mouse striatum. It is filed as biochemical. The conditions noted are these: antagonist concentrations up to 1 μM, unpublished data. For orientation: GTPγS resists hydrolysis and so accumulates on activated G proteins.

`Clc1ccc(N2CCN(Cc3c[nH]c4ncccc34)CC2)cc1` [LY745870]: the “effect on D-301-stimulated [35S]GTPγS binding” value was “no significant effect”.
